Where two headings read alike, the source gives them in different places.
Key:
[1] = tested on: bone marrow cells of mice; test: Side effects of gamma-radiation and cis-platinum on bone marrow cells of mice; assay type: in vivo
Excerpt: Thus, it appears that when PUFAs and conventional anti-cancer drugs/agents are given together they not only act to potentiate the cytotoxic action of each other on the tumor cells and thus, produce synergistic and/or additive action on their ability to eliminate the tumor cells but it will also lead to elimination, reduction, or amelioration of the side effects of conventional anti-cancer agents. Since, PUFAs are able to potentiate the cytotoxic action(s) of conventional anti-cancer drugs (agents) and cytokines; it is also possible that this will lead to a significant reduction in the doses of these latter agents without compromising the ultimate benefit namely, elimination of tumor cells or the tumor. Accordingly, certain embodiments are directed to methods comprising administering a PUFA (e.g., GLA) containing compositions as described herein and a conventional anti-cancer drug to a subject in need thereof.

[2] = tested on: IFN-sensitive / IFN-resistant tumor cells; test: Apoptosis and lipid droplet accumulation in IFN-sensitive and IFN-resistant tumor cells; assay type: cell-based; details: IFN-resistant cells pre-treated with GLA/AA, then exposed to IFN
Excerpt: The present inventor also unexpectedly discovered that the anti-cancer actions of interferon (IFN) and tumor necrosis factor-a (TNF-a) need the presence of substantial amounts of cellular content of GLA, AA, EPA and DHA (˜GLA≧AA>EPA>DHA).

tumor cells [3] = test: Tumoricidal action: ability to induce apoptosis of tumor cells; assay type: cell-based
Excerpt: For instance, GLA is metabolized in the tumor cells to form 15-, 12- and 8-OH 20 carbon and 13-OH 18 carbon fatty acid derivatives that seem to be responsible for the apoptosis of tumor cells. In contrast to this, DGLA could go through an exclusive C-8 oxygenation pathway during COX-catalyzed lipid peroxidation in addition to a C-15 oxygenation pathway shared by both DGLA and AA, and that the exclusive C-8 oxygenation could lead to the production of distinct DGLA's free radical derivatives that may be correlated with DGLA's anti-proliferation activity. As shown below DGLA can go through a unique C-8 oxygenation reaction pathway, in addition to a C-15 oxygenation pathway shared by both DGLA and AA.
similar to the one that is formed from DGLA as described above) product, instead of the more common aldehyde. Thus, it is evident that the peroxidation products formed from GLA, DGLA and AA are totally different, and this may account for the differences in their tumoricidal action wherein GLA>DGA>AA with regard to their ability to induce apoptosis of tumor cells.

cancer = details: free acid form versus other forms
Excerpt: In general, it was believed that the potency of actions of a free acid form is equal to or similar to sodium salt, ethyl ester, methyl ester or other forms of salts, esters, glycerides, amides, or phospholipids, or alkylated, alkoxylated, halogenated, sulfonated, or phosphorylated forms of the fatty acid.

[4] = 1 mg GLA, 0.01% ethanol PBS/saline; GLA:lithium ratio exceeding about 1:0.01
Method: The effect of lithium as an exemplary stabilizing agent in compositions of GLA was tested as follows. To 1 mg (1000 μg) of GLA dissolved in a solution of PBS/saline comprising 0.01% ethanol was added different concentrations of lithium (as lithium chloride), and after a specific period of incubation the concentration of GLA present in the solution was tested.

normal cells = details: 10 μg/ml GLA, 1×10^4 cells, 72 hrs
Excerpt: FIG. 9 provides cytotoxicity data in normal cells for GLA solutions in varying concentrations of ethanol.

cancer cells = details: 72 hrs
Method: 1×10^4 cancer cells or normal cells were incubated with the GLA composition for 72 hrs and viability of the cells in vitro determined.

[5] = 0.01% ethanol/saline/PBS pH 7.4 at 37° C. versus saline/PBS, no lithium
Excerpt: FIG. 7 is additional stability data for GLA solutions comprising 0.01% ethanol/saline/PBS or saline/PBS without added lithium.

[6] = Method: In a separate experiment, GLA was dissolved in saline/PBS (pH 7.4) comprising 0.01% ethanol at 37° C. or saline/PBS (pH 7.4), and different concentrations of lithium was added. At the end of the incubation time the concentration of GLA present was tested. […] The same test system is used to test the effect of Mg, Mn, Zn, Fe, Cu salts on the stability of GLA. The concentrations of these metals used are same as that of Lithium.
tumor cells [7] = details: solvent (ethyl alcohol) content above 0.01% and lower than 0.001%
IMR-32 cells = test: Growth of IMR-32 cells; assay type: cell-based; parameters: unit of the concentration uncertain
Excerpt: hypercalcemia, tumor cancer cell proliferation, tumor angiogenesis and resistance of tumor to anti-VEGF therapy (see FIG. 1). In addition, PGE2 may have the ability to modulate NO generation. […] Though this growth promoting action of indomethacin and NDGA could be attributed to their non-specific anti-oxidant actions, it is equally possible that some unknown products have been generated from PUFAs that have growth promoting actions. […] Accordingly, treatment of tumor cells with PUFAs according to embodiments of the invention is believed to be a viable treatment method for cancers, such as glioma.

Question: With `CCCCC/C=C\C/C=C\C/C=C\C/C=C\CCCC(=O)O` [AA, arachidonic acid, reference compound] as the compound, how does the “side effects of gamma-radiation and cis-platinum to bone marrow cells” value [1] read?
Answer: prevent or ameliorate the side effects

Question: And the “apoptosis and lipid droplets” value [2]?
Answer: both induction of apoptosis and accumulation of lipid droplets in the tumor cells were seen

Question: And the “rank order of ability to induce apoptosis of tumor cells” value (tumor cells [3])?
Answer: GLA>DGA>AA

Question: For `CCCCC/C=C\C/C=C\C/C=C\CCCCCCC(=O)O` [DGLA, di-homo gamma linolenic acid], which “rank order of ability to induce apoptosis of tumor cells” value (tumor cells [3]) is on record?
Answer: GLA>DGA>AA

Question: What does the source list for `CCCCC/C=C\C/C=C\C/C=C\CCCCC(=O)O` [GLA, gamma-linolenic acid]?
Answer: potency of anti-cancer action (cancer): more potent than sodium salt, ethyl ester, methyl ester; stability of GLA (percentage of original GLA remaining) [4]: stability of GLA decreased; background death of cells (normal cells): 10-15%; side effects of gamma-radiation and cis-platinum to bone marrow cells [1]: prevent or ameliorate the side effects; background death of cells (cancer cells; 10 μg/ml GLA, 1×10^4 cells): 10-15%; stability of GLA (percentage of original GLA remaining) [5]: stabilizing effect; concentration of GLA relative to lithium ([6]; Mg, Mn, Zn, Fe, Cu salts, same concentrations and incubation periods as lithium): decrease the concentration of GLA; stability of GLA (percentage of original GLA remaining) ([6]; comparison solutions, printed as 'solutions with ethanol'): less stable; stability of GLA (percentage of original GLA remaining) ([6]; saline/PBS pH 7.4 with 0.01% ethanol at 37° C. plus lithium): stabilizing effect; generation of LXA4 (RIN cells; PUFAs 15 μg, pretreatment with alloxan, simultaneous treatment with STZ): greater than or equal to all other fatty acids tested; formation of LXA4 (RIN cells; studies performed in support of the invention): enhances the formation of LXA4; apoptosis and lipid droplets [2]: both induction of apoptosis and accumulation of lipid droplets in the tumor cells were seen; activity, stability and tumoricidal action (tumor cells [7]): relatively inactive, unstable and its tumoricidal action inefficient; rank order of ability to induce apoptosis of tumor cells (tumor cells [3]): GLA>DGA>AA

Question: Which “growth of IMR-32 cells” value (IMR-32 cells) does the source give for `CCCCC/C=C\C\C=C/C=C/C=C/[C@@H](SC[C@H](N)C(=O)NCC(=O)O)[C@@H](O)CCCC(=O)O` [LTD4] here?
Answer: growth inhibitory action

Question: With `CCCCC[C@H](O)/C=C/C=C\C=C\C=C\[C@@H](O)[C@@H](O)CCCC(=O)O` [LXA4] as the compound, how does the “growth of IMR-32 cells” value (IMR-32 cells) read?
Answer: inhibited the growth of IMR-32 cells

Question: Which “growth of IMR-32 cells” value (IMR-32 cells) does the source give for `CCCCC[C@H](O)/C=C/[C@H]1[C@H](O)CC(=O)[C@@H]1CCCCCCC(=O)O` [PGE1] here?
Answer: growth inhibitory action

Question: Which “growth of IMR-32 cells” value (IMR-32 cells) does the source give for `CCCCC[C@H](O)/C=C/[C@H]1[C@H](O)CC(=O)[C@@H]1C/C=C\CCCC(=O)O` [PGE2] here?
Answer: growth inhibitory action

Question: For `CCO` [ethanol], which “concentration of ethanol resulting in cell death” value (cancer cells; with 10 μg/ml GLA in saline/PBS) is on record?
Answer: above 0.01%

Question: Which “growth of IMR-32 cells” value (IMR-32 cells; 60 (unit uncertain)) does the source give for `COc1ccc2c(c1)c(CC(=O)O)c(C)n2C(=O)c1ccc(Cl)cc1` [indomethacin] here?
Answer: enhanced the growth of IMR-32 cells

Question: With `CC(Cc1ccc(O)c(O)c1)C(C)Cc1ccc(O)c(O)c1` (stereo not shown) [nordihydroguaiaretic acid] as the compound, how does the “growth of IMR-32 cells” value (IMR-32 cells; 20 (unit uncertain)) read?
Answer: enhanced the growth of IMR-32 cells
